62 compounds from article doi:10.1101/2021.10.07.463234v2 (biorxiv, 2021) can be followed below.

Counter-ions that a name gives are not always drawn.

The target of one test is SARS-CoV-2 Mac1 (Severe acute respiratory syndrome coronavirus 2, UniProt P0DTD1). Description: biochemical. The conditions noted are these: 100 µM; inhibitor.
Turning to `N[C@@H](Cc1cc(I)c(Oc2cc(I)c(O)c(I)c2)c(I)c1)C(=O)O` [L-Thyroxine], the %inhibition (in general, the change of the read-out against control, counted positive when it falls) is listed as 10.74%.

Regarding `OC[C@@H](O)[C@@H](O[C@@H]1O[C@H](CO)[C@H](O)[C@H](O)[C@H]1O)[C@H](O)[C@@H](O)CO` [Lactitol monohydrate], the “%inhibition” value came out at 1.512%.

Turning to `OC[C@@H](O)[C@@H](O[C@@H]1O[C@H](CO)[C@H](O)[C@H](O)[C@H]1O)[C@H](O)[C@@H](O)CO` [Lactitol], the “%inhibition” value worked out at 5.8%.

In the case of `CS(=O)(=O)CCNCc1ccc(-c2ccc3ncnc(Nc4ccc(OCc5cccc(F)c5)c(Cl)c4)c3c2)o1` [Lapatinib (GW-572016) Ditosylate], the “%inhibition” value amounted to 16.67%.

As to `CS(=O)(=O)CCNCc1ccc(-c2ccc3ncnc(Nc4ccc(OCc5cccc(F)c5)c(Cl)c4)c3c2)o1` [Lapatinib ditosylate monohydrate], the “%inhibition” value is recorded as 13.25%.

For the compound `CS(=O)(=O)CCNCc1ccc(-c2ccc3ncnc(Nc4ccc(OCc5cccc(F)c5)c(Cl)c4)c3c2)o1` [Lapatinib], the “%inhibition” value is 0%.

`COc1cc2nccc(Oc3ccc(NC(=O)NC4CC4)c(Cl)c3)c2cc1C(N)=O` [Lenvatinib (E7080)]: the “%inhibition” value is recorded as 22.86%.

With `CCNC(=O)[C@@H]1CCCN1C(=O)[C@H](CCCNC(=N)N)NC(=O)[C@H](CC(C)C)NC(=O)[C@@H](CC(C)C)NC(=O)[C@H](Cc1ccc(O)cc1)NC(=O)[C@H](CO)NC(=O)[C@H](Cc1c[nH]c2ccccc12)NC(=O)[C@H](Cc1c[nH]cn1)NC(=O)[C@@H]1CCC(=O)N1` [Leuprorelin Acetate], the “%inhibition” value is 6.662%.

In the case of `C[C@H]1COc2c(N3CCN(C)CC3)c(F)cc3c(=O)c(C(=O)O)cn1c23` [Levofloxacin hydrate], the “%inhibition” value is on record as 0%.

Turning to `C[C@H]1COc2c(N3CCN(C)CC3)c(F)cc3c(=O)c(C(=O)O)cn1c23` [Levofloxacin], the “%inhibition” value is 22.21%.

Take `N[C@@H](Cc1cc(I)c(Oc2cc(I)c(O)c(I)c2)c(I)c1)C(=O)O` [Levothyroxine sodium]: the “%inhibition” value was 4.124%.

Consider `CCN(CC)CC(=O)Nc1c(C)cccc1C` [Lidocaine hydrochloride], for which the “%inhibition” value was found to be 4.808%.

`CCN(CC)CC(=O)Nc1c(C)cccc1C` [Lidocaine]: the “%inhibition” value amounted to 1.6%.

On to `CCC[C@@H]1C[C@@H](C(=O)N[C@@H]([C@H]2O[C@H](SC)[C@H](O)[C@@H](O)[C@H]2O)[C@@H](C)O)N(C)C1` [Lincomycin HCl], for which the “%inhibition” value is 0%.

As for `CCC[C@@H]1C[C@@H](C(=O)N[C@@H]([C@H]2O[C@H](SC)[C@H](O)[C@@H](O)[C@H]2O)[C@@H](C)O)N(C)C1` [Lincomycin Hydrochloride Monohydrate], the “%inhibition” value was determined as 16.9%.

For the compound `O=C(NC1CCN(CCCCC2(C(=O)NCC(F)(F)F)c3ccccc3-c3ccccc32)CC1)c1ccccc1-c1ccc(C(F)(F)F)cc1` [Lomitapide Mesylate], the “%inhibition” value was determined as 34.98%.

In the case of `CCCCc1nc(Cl)c(CO)n1Cc1ccc(-c2ccccc2-c2nnn[nH]2)cc1` [Losartan Potassium (DuP 753)], the “%inhibition” value is 0%.

In the case of `CCCCc1nc(Cl)c(CO)n1Cc1ccc(-c2ccccc2-c2nnn[nH]2)cc1` [Losartan], the “%inhibition” value is recorded as 18.38%.

The test is the same for the next values; noted with them: read-out: %inhibition.
On to `C[Se]CC[C@H](N)C(=O)O` [L-SelenoMethionine], for which the inhibition (usually the percentage by which the read-out fell short of the control) at 100 µM amounted to 0%.

Turning to `C[N+](C)(C)C[C@H](O)CC(=O)[O-]` [L-carnitine], the inhibition at 100 µM stood at 3.55%.

With `CC(CCc1ccccc1)NCC(O)c1ccc(O)c(C(N)=O)c1` (centres unmarked) [Labetalol HCl], the inhibition at 100 µM was 0%.

On to `CCOC(=O)C1=C(C)NC(C)=C(C(=O)OCC)C1c1ccccc1/C=C/C(=O)OC(C)(C)C` [Lacidipine], for which the inhibition at 100 µM turned out to be 3.07%.

As to `O=C(C[S+]([O-])Cc1ccco1)NC/C=C\COc1cc(CN2CCCCC2)ccn1` (centres unmarked) [Lafutidine], the inhibition at 100 µM was 0%.

Regarding `Nc1ccn([C@@H]2CS[C@H](CO)O2)c(=O)n1` [Lamivudine], the inhibition at 100 µM turned out to be 0%.

On to `Nc1nnc(-c2cccc(Cl)c2Cl)c(N)n1` [Lamotrigine], for which the inhibition at 100 µM was 12.3%.

On to `CC1(C)OC[C@@H](COC(=O)CCc2ccc(OC[C@@H](O)CNCCNC(=O)N3CCOCC3)cc2)O1` [Landiolol hydrochloride], for which the inhibition at 100 µM amounted to 18%.

Take `Cc1c(OCC(F)(F)F)ccnc1C[S+]([O-])c1nc2ccccc2[nH]1` (centres unmarked) [Lansoprazole]: the inhibition at 100 µM turned out to be 4.45%.

In the case of `CCN(C(=O)c1c(O)c2c(Cl)cccc2n(C)c1=O)c1ccccc1` [Laquinimod], the inhibition at 100 µM was 22.6%.

Take `CO[C@@]1(NC(=O)C(C(=O)O)c2ccc(O)cc2)C(=O)N2C(C(=O)O)=C(CSc3nnnn3C)CO[C@@H]21` (some centres unmarked) [Latamoxef sodium]: the inhibition at 100 µM came out at 17%.

Regarding `CC(C)OC(=O)CCC/C=C\C[C@@H]1[C@@H](CC[C@@H](O)CCc2ccccc2)[C@H](O)C[C@@H]1O` [Latanoprost], the inhibition at 100 µM stood at 23.8%.

For the compound `COC(=O)N[C@H](C(=O)N1CC2(CC2)C[C@H]1c1nc(-c2ccc3c(c2)C(F)(F)c2cc(-c4ccc5[nH]c([C@@H]6[C@H]7CC[C@H](C7)N6C(=O)[C@@H](NC(=O)OC)C(C)C)nc5c4)ccc2-3)c[nH]1)C(C)C` [Ledipasvir (GS5885)], the inhibition at 100 µM turned out to be 23.8%.

In the case of `Cc1oncc1C(=O)Nc1ccc(C(F)(F)F)cc1` [Leflunomide], the inhibition at 100 µM came out at 22.5%.

With `Nc1cccc2c1CN(C1CCC(=O)NC1=O)C2=O` (centres unmarked) [Lenalidomide (CC-5013)], the inhibition at 100 µM is 40.3%.

For `COC(=O)C1=C(C)NC(C)=C(C(=O)OC(C)(C)CN(C)CCC(c2ccccc2)c2ccccc2)C1c1cccc([N+](=O)[O-])c1` (centres unmarked) [Lercanidipine hydrochloride], the inhibition at 100 µM amounted to 0%.

In the case of `O=C(O)CSc1nnc(Br)n1-c1ccc(C2CC2)c2ccccc12` [Lesinurad], the inhibition at 100 µM was found to be 2.49%.

On to `CCNC(=O)[C@@H]1CCCN1C(=O)[C@H](CCCNC(=N)N)NC(=O)[C@H](CC(C)C)NC(=O)[C@@H](CC(C)C)NC(=O)[C@H](Cc1ccc(O)cc1)NC(=O)[C@H](CO)NC(=O)[C@H](Cc1c[nH]c2ccccc12)NC(=O)[C@H](Cc1c[nH]cn1)NC(=O)[C@@H]1CCC(=O)N1` [Leuprolide Acetate], for which the inhibition at 100 µM came to 13.2%.

As for `c1ccc([C@H]2CN3CCSC3=N2)cc1` [Levamisole hydrochloride], the inhibition at 100 µM worked out at 0%.

`CC[C@@H](C(N)=O)N1CCCC1=O` [Levetiracetam]: the inhibition at 100 µM stood at 0%.

Regarding `CC(C)NC[C@H](O)COc1ccc(CCOCC2CC2)cc1` [Levobetaxolol HCl], the inhibition at 100 µM amounted to 12.1%.

In the case of `CCCCN1CCCC[C@H]1C(=O)Nc1c(C)cccc1C` [Levobupivacaine HCl], the inhibition at 100 µM worked out at 0%.

As to `O=C(O)COCCN1CCN([C@H](c2ccccc2)c2ccc(Cl)cc2)CC1` [Levocetirizine Dihydrochloride], the inhibition at 100 µM was 7.84%.

For the compound `OC[C@@H](O)CN1CCN(c2ccccc2)CC1` [Levodropropizine], the inhibition at 100 µM is 4.43%.

As for `C#C[C@]1(O)CC[C@H]2[C@@H]3CCC4=CC(=O)CC[C@@H]4[C@H]3CC[C@@]21CC` [Levonorgestrel], the inhibition at 100 µM worked out at 53.4%.

For `C[C@@H]1CC(=O)NN=C1c1ccc(NN=C(C#N)C#N)cc1` [Levosimendan], the inhibition at 100 µM stood at 0%.

`CCN1CCC[C@H]1CNC(=O)c1cc(S(N)(=O)=O)ccc1OC` [Levosulpiride]: the inhibition at 100 µM amounted to 0%.

For the compound `CS(=O)(=O)c1cccc(C[C@H](NC(=O)c2c(Cl)cc3c(c2Cl)CCN(C(=O)c2ccc4ccoc4c2)C3)C(=O)O)c1` [Lifitegrast], the inhibition at 100 µM is 0%.

Take `CC#CCn1c(N2CCC[C@@H](N)C2)nc2c1c(=O)n(Cc1nc(C)c3ccccc3n1)c(=O)n2C` [Linagliptin]: the inhibition at 100 µM came out at 23.9%.

In the case of `CC(=O)NC[C@H]1CN(c2ccc(N3CCOCC3)c(F)c2)C(=O)O1` [Linezolid], the inhibition at 100 µM was found to be 0%.

On to `Cc1ccc(F)c(NC(=O)Nc2ccc(-c3cccc4[nH]nc(N)c34)cc2)c1` [Linifanib (ABT-869)], for which the inhibition at 100 µM came out at 52.3%.

Turning to `C[C@]1(O)C[C@@H](c2nc(-c3ccc4ccc(-c5ccccc5)nc4c3)c3c(N)nccn32)C1` [Linsitinib (OSI-906)], the inhibition at 100 µM is 9.54%.

In the case of `NCCCC[C@H](N[C@@H](CCc1ccccc1)C(=O)O)C(=O)N1CCC[C@H]1C(=O)O` [Lisinopril], the inhibition at 100 µM is 3.22%.

With `C[C@H](CCC(=O)O)[C@H]1CC[C@H]2[C@@H]3CC[C@@H]4C[C@H](O)CC[C@]4(C)[C@H]3CC[C@]12C` [Lithocholic acid], the inhibition at 100 µM amounted to 0%.

As for `CCn1cc(C(=O)O)c(=O)c2cc(F)c(N3CCNC(C)C3)c(F)c21` (centres unmarked) [Lomefloxacin], the inhibition at 100 µM came out at 0%.

`COc1ccc(CN2CCN(C(c3ccc(F)cc3)c3ccc(F)cc3)CC2)c(OC)c1OC` [Lomerizine 2HCl]: the inhibition at 100 µM worked out at 12.8%.

Consider `CC(C)(C)C#Cc1cc(N(C(=O)[C@H]2CC[C@H](C)CC2)[C@H]2CC[C@H](O)CC2)c(C(=O)O)s1` [Lomibuvir (VX-222, VCH-222)], for which the inhibition at 100 µM was 2.87%.

Consider `O=C(NC1CCN(CCCCC2(C(=O)NCC(F)(F)F)c3ccccc3-c3ccccc32)CC1)c1ccccc1-c1ccc(C(F)(F)F)cc1` [Lomitapide], for which the inhibition at 100 µM is 17.8%.

As to `NC(=O)N1CCC(CC(=O)N2CCC([C@H]3c4ncc(Br)cc4CCc4cc(Cl)cc(Br)c43)CC2)CC1` [Lonafarnib], the inhibition at 100 µM came out at 29.6%.

On to `O=C(O)c1nn(Cc2ccc(Cl)cc2Cl)c2ccccc12` [Lonidamine], for which the inhibition at 100 µM came out at 7.38%.

As for `Cc1cccc(C)c1OCC(=O)N[C@@H](Cc1ccccc1)[C@@H](O)C[C@H](Cc1ccccc1)NC(=O)[C@H](C(C)C)N1CCCNC1=O` [Lopinavir], the inhibition at 100 µM is 0%.

As for `CN1C(C(=O)Nc2ccccn2)=C(O)c2sc(Cl)cc2S1(=O)=O` [Lornoxicam], the inhibition at 100 µM amounted to 18.3%.

On to `Cc1c(F)cc(C(=O)NC2CC2)cc1-c1ccc(C(=O)NCC(C)(C)C)cn1` [Losmapimod (GW856553X)], for which the inhibition at 100 µM stood at 0%.

As for `CCOC(=O)O[C@]1(C(=O)OCCl)CC[C@H]2[C@@H]3CCC4=CC(=O)C=C[C@]4(C)[C@H]3[C@@H](O)C[C@@]21C` [Loteprednol etabonate], the inhibition at 100 µM was 0%.
